Source: US10064839B2, “Methods of treating liver diseases” (Zafgen, Inc., priority 2012, dated 2018)

Legend:
[1] = target: MetAP1 (Homo sapiens, UniProt P53582); test: MetAP1 IC50; type: biochemical; conditions: second value of the cell; read-out: MetAP2/MetAP1 IC50 (nM): MetAP1
[2] = system: NASH mice; test: Non-alcoholic steatohepatitis (STZ + high fat diet) mouse model; type: in vivo; conditions: for Mean body weight at the day before sacrifice: 5 to 9 weeks of age, Vehicle 18.8±1.0 g; for Fibrosis area (Sirius red-positive area): Vehicle 1.07±0.18%; for Inflammation area (F4/80-positive area): Vehicle 3.57±0.88%; for Fat deposition area (oil red-positive area): Vehicle 23.57±6.52%; for Liver TG content: Vehicle 67.3±29.0; for Whole blood HbA1c levels: FIG. 9; for NAFLD Activity score (NAS): Vehicle 5.4±0.9
Experimental: NASH was induced in 48 male mice by a single subcutaneous injection of 200 μg streptozotocin (STZ; Sigma-Aldrich) in the back of mice 2 days after birth, and by feeding with high fat diet (HFD; 57 kcal % fat) after 4 weeks of age. At 5 weeks of age, the NASH mice were randomized into 6 groups of 8 mice based on body weight. Eight male littermates, fed with normal diet (without STZ treatment, were used for the Normal group. Vehicle, Compound A and Telmisartan were administered by the oral route in a volume of 10 mL/kg body weight.
Compound A was administered twice daily at doses of 1, 3 or 10 mg/kg body weight (i.e., 2, 6 or 20 mg/kg/day) and once daily at dose of 30 mg/kg body weight. Telmisartan was administered once daily at a dose of 10 mg/kg body weight.
C57BL/6 mice (15-day pregnant female) were obtained from Charles River Laboratories Japan (Japan). The animals were maintained in a SPF facility under controlled conditions of temperature (23±2° C.), humidity (45±10%), lighting (12-hour artificial light and dark cycles; light from 8:00 to 20:00) and air exchange. A high pressure (20±4 Pa) was maintained in the experimental room to prevent contamination of the facility.
Mice were fasted for 4 hours before blood was collected at the time of sacrifice. HbA1c levels were quantified in whole blood samples by DCA Vantage Analyzer (Siemens Healthcare Diagnostics, USA). For plasma biochemistry, blood was collected in polypropylene tubes with anticoagulant (Novo-Heparin;) and centrifuged at 1,000×g for 15 minutes at 4° C. The supernatant was collected and stored at −80° C. until use. Plasma levels of glucose, ALT, TG and total cholesterol were measured by FUJI DRI-CHEM 7000 (Fujifilm, Japan). Plasma insulin concentration was quantified by the Ultra Sensitive Mouse Insulin ELISA Kit.
Liver total lipid-extracts were obtained by Folch's method (Folch J. et al., J. Biol. Chem. 1957; 226: 497). Liver samples were homogenized in chloroform-methanol (2:1, v/v) and incubated overnight at room temperature. After washing with chloroform-methanol-water (8:4:3, v/v/v), the extracts were evaporated to dryness, and dissolved in isopropanol. Liver TG levels were measured by Triglyceride E-test (Wako Pure Chemical Industries). Extracts were diluted 2-fold in isopropanol when the TG content exceeded the detection limit.
For HE staining, sections were cut from paraffin blocks of liver tissue prefixed in Bouin's solution and stained with Lillie-Mayer's Hematoxylin (Muto Pure Chemicals, Japan) and eosin solution (Wako Pure Chemical Industries). NAFLD Activity score (NAS) was calculated according to the criteria of Kleiner (Kleiner D E et al., Hepatology, 2005; 41:1313). To visualize collagen deposition, Bouin's fixed liver sections were stained using picro-Sirius red solution (Waldeck, Germany). To visualize macro- and microvesicular fat, cryosections were cut from frozen liver tissues, prefixed in 10% neutral buffered formalin, embedded in Tissue-Tek O.C.T. compound (Sakura Finetek Japan, Japan), and stained with Oil Red O (Sigma-Aldrich). For immunohistochemistry, sections were cut from frozen liver tissues embedded in Tissue-Tek O.C.T. compound and fixed in acetone. Endogenous peroxidase activity was blocked using 0.03% H2O2 for 5 minutes, followed by incubation with Block Ace (Dainippon Sumitomo Pharma, Japan) for 10 minutes. The sections were incubated with a 200-fold dilution of anti-F4/80 antibody (BMA Biomedicals, Switzerland) over night at 4° C. After incubation with secondary antibody (HRP-Goat anti-rat antibody, Invitrogen, USA), enzyme-substrate reactions were performed using 3, 3′-diaminobenzidine/H2O2 solution (Nichirei, Japan). […]

In the case of `CCN(CC)C/C=C\c1cc(F)ccc1S(=O)(=O)Nc1ccc2c(c1C(=O)O)OC[C@@H]1C[C@H]21` (single isomer, unassigned) [Example 12], the IC50 [1] is reported as 50000 nM, the “HE-stained liver sections vs Vehicle group” value ([2]; 1 mg/kg (BID)) is reported as “No obvious differences” and the “Mean body weight at the day before sacrifice” value (“Mean body weight” below) ([2]; 1 mg/kg (BID) oral) is reported as 19.2 ± 1.4 g. The “Fibrosis area (Sirius red-positive area)” value ([2]; 1 mg/kg (BID)) was 1.12±0.46%, the “Inflammation area (F4/80-positive area)” value ([2]; 1 mg/kg (BID)) was 3.67±0.91% and the “Fat deposition area (oil red-positive area)” value (shortened to “Fat deposition area”) ([2]; 1 mg/kg (BID)) was 18.47±5.22%. The “Liver TG content” value ([2]; 1 mg/kg (BID)) was 71.7±30.3 mg/g liver, the “Hepatocellular ballooning and inflammatory cell infiltration vs Vehicle group” value ([2]; 3 mg/kg (BID)) was “decrease” and the “Mean body weight” value ([2]; 3 mg/kg (BID) oral) was 18.7 ± 1.4 g. For the same compound, the “Whole blood HbA1c levels” value ([2]; 3 mg/kg (BID)) was “decreased”, the “Fibrosis area (Sirius red-positive area)” value ([2]; 3 mg/kg (BID)) was 0.89±0.32% and the “Inflammation area (F4/80-positive area)” value ([2]; 3 mg/kg (BID)) was 3.47±0.65%. For the same compound, the “NAFLD Activity score (NAS)” value ([2]; 3 mg/kg (BID)) was 3.6±1.6, the “Fat deposition area” value ([2]; 3 mg/kg (BID)) was 19.53±4.64% and the “Liver TG content” value ([2]; 3 mg/kg (BID)) was 52.9±18.5 mg/g liver. For the same compound, the “Hepatocellular ballooning and inflammatory cell infiltration vs Vehicle group” value ([2]; 10 mg/kg (BID)) was “decrease”, the “Mean body weight” value ([2]; 10 mg/kg (BID) oral) was 18.7 ± 1.0 g and the “Whole blood HbA1c levels” value ([2]; 10 mg/kg (BID)) was “decreased”. The “Fibrosis area (Sirius red-positive area)” value ([2]; 10 mg/kg (BID)) was 1.07±0.31%, the “Inflammation area (F4/80-positive area)” value ([2]; 10 mg/kg (BID)) was 3.82±0.57% and the “NAFLD Activity score (NAS)” value ([2]; 10 mg/kg (BID)) was 3.4±1.5. The “Fat deposition area” value ([2]; 10 mg/kg (BID)) was 23.31±9.18%, the “Liver TG content” value ([2]; 10 mg/kg (BID)) was 56.7±25.8 mg/g liver and the “HE-stained liver sections vs Vehicle group” value ([2]; 30 mg/kg (QD)) was “No obvious differences”. For the same compound, the “Mean body weight” value ([2]; 30 mg/kg (QD) oral) was 17.9 ± 0.9 g, the “Fibrosis area (Sirius red-positive area)” value ([2]; 30 mg/kg (QD)) was 0.99±0.43% and the “Inflammation area (F4/80-positive area)” value ([2]; 30 mg/kg (QD)) was 3.90±0.78%. The “Fat deposition area” value ([2]; 30 mg/kg (QD)) was 22.30±9.59%, the “Liver TG content” value ([2]; 30 mg/kg (QD)) was 62.4±18.1 mg/g liver and the “Plasma total cholesterol levels” value ([2]; BID dosing, dose dependent, FIG. 10) was “decreased”. The NAS ([2]; QD dosing (30 mg/kg)) was “did not show evident improvement”, the “Plasma total cholesterol levels” value ([2]; QD dosing (30 mg/kg)) was “significantly decreased” and the “Whole blood HbA1c” value ([2]; QD dosing (30 mg/kg)) was “did not show evident improvement”.
